Results: patent US12702692B2, “Therapeutic use of calcium-activated chloride channel peptide activator” (CENTRE NATIONAL DE LA RECHERCHE SCIENTIFIQUE, priority 2020, dated 2026)

Columns and labels:
[1] = Acute effect on tear fluid secretion (tearing rate, phenol red thread) in naive rats; type: in vivo, Sprague-Dawley rats
Method: Sprague-Dawley rats (males, around 200 g) were purchased from Charles River and adapted one week before processing the experiment. Two-three rats per cage were housed in a controlled environment of 12 hours intervals of light/dark cycles and free access to food and water. Animal experiments were approved by the Animal Care and Use Committee of the University of Barcelona (CEEA) and the […] de Territori i Sostenibilitat of Generalitat de Catalunya, Catalonia, Spain (319/19; 10935) and followed the ethical guidelines of the International Association for the Study of Pain. […] (also named Nter 13 peptide or […] NO: 2)) and scramble ([…] NO: 7)) peptides were purchased from GenScript Biotech (Leiden, Netherlands) and provided by CNRS. Both peptides were dissolved in Phosphate Buffered Saline (PBS) at 10 mM and used for topical ocular application (5 ul per eye). Tear fluid secretion (tearing rate) was measured using phenol red threads (Zone-Quick, Menicon, Nagoya, Japan) placed on the lower eyelid for 30 s without topical anesthesia (Trost, 2007; Acosta 2013). Tearing rate was determined with an accuracy of ±0.5 mm by measurement of the length of the red portion of the thread. After habituation of the animals, basal tearing rate was measured in both eyes before any topical application of peptides. Then, animals were divided in different groups and a solution containing vehicle (PBS), amiloride (1 mM), peptide N13 or peptide scramble was topically applied to the ocular surface (5 μl) and tearing rate was measured at 1, 3, 6, 12 and 24 h. Tearing rate measurements were done blind to the treatment received by the animals. Data are presented as mean±standard error of the mean (SEM). Statistical differences between different sets of data were assessed by performing repeated measured One-way ANOVA plus Bonferroni's post-tests (each data point in an experimental group vs. basal values) or repeated measured Two-way ANOVA plus Bonferroni's post-tests (each data point in […] group vs. Scramble or Vehicle group; or point in […] or amiloride groups vs. Vehicle group) using Prism 9 (GraphPad Software, San Diego, CA). The significance level was set at p<0.05 in all statistical analyses.

TMEM16A [2] = molecular target: T1, TMEM16A (Mus musculus, UniProt Q8BHY3); assay: Whole-cell patch-clamp of HEK293T cells expressing TMEM16A; type: cell-based; conditions: for inhibition of KCNE1-TMEM16A chloride current: HEK293T co-expressing TMEM16A and KCNE1; for effect of peptide application on TMEM16A current: HEK293T cells expressing TMEM16A alone, 100 μM for Nter13, S38G and rat peptides
T1 construct: expressed in transfected cells; host or cells: HEK293T
T1 sequence (Q8BHY3 1-960): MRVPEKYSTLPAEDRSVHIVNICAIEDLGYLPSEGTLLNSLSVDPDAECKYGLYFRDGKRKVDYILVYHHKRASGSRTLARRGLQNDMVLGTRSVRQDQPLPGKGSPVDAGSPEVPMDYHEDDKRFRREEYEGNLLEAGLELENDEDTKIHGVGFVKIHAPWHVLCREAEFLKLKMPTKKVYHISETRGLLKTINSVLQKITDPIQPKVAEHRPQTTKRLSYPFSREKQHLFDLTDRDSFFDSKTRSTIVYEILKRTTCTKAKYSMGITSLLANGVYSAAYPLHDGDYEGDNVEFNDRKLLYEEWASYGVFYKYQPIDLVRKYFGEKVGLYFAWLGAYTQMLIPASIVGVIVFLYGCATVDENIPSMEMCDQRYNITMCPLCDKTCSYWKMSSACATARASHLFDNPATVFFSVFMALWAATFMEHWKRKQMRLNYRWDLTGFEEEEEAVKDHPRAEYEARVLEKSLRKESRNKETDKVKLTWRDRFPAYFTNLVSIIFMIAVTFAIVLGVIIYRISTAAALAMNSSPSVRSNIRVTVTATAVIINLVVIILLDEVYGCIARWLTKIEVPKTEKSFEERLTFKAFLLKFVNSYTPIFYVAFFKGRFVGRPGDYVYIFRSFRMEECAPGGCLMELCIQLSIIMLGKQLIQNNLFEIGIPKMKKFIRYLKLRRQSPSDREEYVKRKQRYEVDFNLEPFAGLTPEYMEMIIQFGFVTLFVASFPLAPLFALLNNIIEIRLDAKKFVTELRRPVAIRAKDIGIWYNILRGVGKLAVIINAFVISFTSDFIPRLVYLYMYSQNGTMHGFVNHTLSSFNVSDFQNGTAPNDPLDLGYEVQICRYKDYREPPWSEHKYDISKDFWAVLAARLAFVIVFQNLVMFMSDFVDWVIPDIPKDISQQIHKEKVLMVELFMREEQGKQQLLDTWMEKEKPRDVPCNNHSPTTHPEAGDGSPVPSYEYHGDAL
Method: (§1) mTMEM16A (kindly provided by Dr Lily Yeh Jan) and hKCNE1 cDNA were subcloned in pIRES2eGFP, pXOOM, pcDNA3.1, pCDNA3.1-GFP and pCMV-HA vectors. Truncations and mutations on KCNE1 were generated by PCR. For SiMPull experiments, HA-tags were fused to the N-terminus of sequences, whereas GFP-tags were fused to C-terminal part. HEK293T and PCT cells were transiently co-transfected using Lipofectamine 2000 or the calcium phosphate method with a total amount of 1 and 3.5 μg of DNA, respectively, and seeded on 18 mm diameter coverslips. HEK cells were maintained in DMEM with 5% FBS on poly-L-lysine-coated glass coverslips in 12 well plates. PCT cells from wild type and knock-out mice were microdissected as described previously and maintained in F12 (Gibco) on collagen-coated glass coverslips.
(§2) HEK293T and PCT cell electrophysiology was performed 24-48 h after transfection. For whole-cell patch-clamp experiments cells were recorded in a bath solution containing (in mM) 150 NaCl, 5 KCl, 2 CaCl2 and 10 HEPES, pH 7.4 and 0.05% BSA. The glass pipettes (2-5 MΩ of resistance) were filled with (in mM) 5 NaCl, 135 CsCl, 2 MgCl2, 5 EGTA, 10 HEPES, pH 7.3. Cells were recorded either after incubation of 30 min with the peptide or during perfusion with the peptide. Total calcium concentration was calculated with Maxchelator (maxchelator.standford.edu) for a temperature of 20° C. HEK293T and PCT cells were recorded at room temperature in voltage-clamp mode using an Axopatch 200A (Molecular Devices) amplifier. Signals were filtered at 10 kHz and digitalized at 20 kHz. Whole-cell currents were elicited by voltage-ramps (from −100 to +100 mV, 1 s) and I-V stimulation pulses (from −100 to +100 mV in 20 mV increments, 1 s each pulse), holding the cells at −80 mV. Current densities were measured at +100 mV. Cell recordings, data acquisition and analysis of electrophysiology experiments were performed using pClamp software (Molecular Devices).

TMEM16A [3] = molecular target: T2, TMEM16A (Mus musculus, UniProt Q8BHY3); assay: Whole-cell patch-clamp of voltage-dependent Cl- current in proximal convoluted tubule (PCT) cells; type: cell-based; conditions: for Cl- current density after inhibitor: wild type PCT cells, untreated wild type 18.07±1.21
T2 construct: endogenous in cells; host or cells: primary mouse kidney proximal convoluted tubule (PCT) cells
Method: as §1, §2
T2 sequence (P23299 whole entry partner, one chain of several): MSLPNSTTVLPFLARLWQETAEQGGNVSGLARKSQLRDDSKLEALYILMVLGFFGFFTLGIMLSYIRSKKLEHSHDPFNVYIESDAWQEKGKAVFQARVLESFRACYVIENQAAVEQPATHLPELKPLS

SK4 channel = molecular target: T3, SK4 channel (Homo sapiens, UniProt O15554); assay: Patch-clamp of HEK293T cells transfected with SK4 and KCNE1; type: cell-based; conditions: absence of calcium
T3 construct: expressed in transfected cells
Method: as §2

KCNQ1 = molecular target: T4, KCNQ1 (Homo sapiens, UniProt P51787); assay: Whole-cell patch-clamp of cells transfected with KCNQ1 and KCNE1 variants; type: cell-based; conditions: co-transfected with wild type KCNQ1, current densities at +40 mV
T4 construct: expressed in transfected cells

[4] = KCNE1 form co-expressed with TMEM16A in HEK293T cells

## N=C(N)NC(=O)c1nc(Cl)c(N)nc1N [Amiloride, amiloride, reference compound]
[1]; N13ter 10 mM, amiloride 1 mM, vehicle PBS
  effect on tearing rate compared with Vehicle: did not show a statistically significant effect
[1]; amiloride 1 mM topical
  eyes with increased tearing rate between 1 h to 3 h: 7 out of 14

## COc1ccccc1/C=N/NC(=O)COc1ccc(Cl)cc1C [Ani9, reference compound]
TMEM16A [2]; Ani9 300 nM
  inhibition of KCNE1-TMEM16A chloride current: inhibited
TMEM16A [2]; Ani9 5 μM after Nter13 100 μM, HEK293T expressing TMEM16A alone
  effect of Ani9 on Nter13-induced TMEM16A current: reversion
TMEM16A [3]; Ani9 5 μM
  Cl- current density after inhibitor: 2.88±0.38 pA/pF

## O=C(O)c1cccnc1Nc1cccc(C(F)(F)F)c1 [NFA, niflumic acid, reference compound]
TMEM16A [2]; NFA 100 μM
  inhibition of KCNE1-TMEM16A chloride current: inhibited
TMEM16A [3]; NFA 100 μM
  Cl- current density after inhibitor: 4.51±0.28 pA/pF

## CCc1c(C)nc(SCC(=O)Nc2nc(-c3ccc(OC)cc3)cs2)[nH]c1=O [T16Ainh-A01, reference compound]
TMEM16A [2]; T16A(inh)A01 10 μM
  inhibition of KCNE1-TMEM16A chloride current: inhibited
TMEM16A [3]; A01 10 μM
  Cl- current density after inhibitor: 5.52±0.72 pA/pF

## KCNE1: human KCNE1 protein of 129 amino acids (NP_000210.2), expressed from cDNA
TMEM16A [2]; KCNE1 co-expressed with TMEM16A in HEK293T cells
  reversal potential: −4.8±1.3 mV
TMEM16A [2]; [4]
  current density at +100 mV: 18.1±2.8 pA/pF
TMEM16A [2]; TMEM16A co-expressed with KCNE1, 1 mM BAPTA
  current density at +100 mV: 21.98±5.32 pA/pF
TMEM16A [3]; kcne1−/− PCT cells transfected with KCNE1 cDNA, KO 5.37±0.56
  voltage-dependent Cl- current density after rescue: 21.59±1.38 pA/pF
SK4 channel
  effect of KCNE1 overexpression on SK4 current: did not induce any increase

## LLAKRGRDSGPSR (SEQ ID NO: 7) (Synthetic scramble peptide) [scrambled control peptide, reference compound]
TMEM16A [2]
  effect of peptide application on TMEM16A current: no effect
[1]; 10 mM topical, 5 μl per eye, n=20 eyes, basal 7.65±0.49 mm (N13ter), 8.10±0.54 mm (Scramble)
  tearing rate at 12 h: 6.45±0.34 mm
[1]; N13ter vs Scramble study, both 10 mM topical
  effect on tearing rate: sustained small decrease

## S38G: KCNE1 S38G polymorphism variant (full protein, not the hS38G peptide)
TMEM16A [2]; [4]
  current density at +100 mV: 6.96±0.78 pA/pF
KCNQ1
  effect of KCNE1 polymorphism on KCNQ1 regulation: do not impair the KCNQ1 regulation

## T7I: KCNE1 disease mutation T7I, not in the regulating domain, control
TMEM16A [2]; [4]
  current density at +100 mV: 24.69±1.57 pA/pF

## hS38G: hS38G peptide (SEQ ID NO: 5), N13 presenting S38G polymorphism (LARRSPRGGDGKL; hN13 S38G) [reference compound]
TMEM16A [2]
  effect of peptide application on TMEM16A current: no effect

## rN13: rat N13 peptide (SEQ ID NO: 6) (LARRSQLRDDSKL; amino acid residues between positions 30 to 42 of the rat KCNE1 protein sequence)
TMEM16A [2]
  effect of peptide application on TMEM16A current: only a small effect
